Assay [1] relates to HIV-1lai. As to the kind of experiment: Antiviral activity in MT-2 human T-lymphoid cells exposed to HIV-1LAI, MTT assay. Type of assay: cell-based. Conditions: for IC50: Human immunodeficiency virus 1, MT2, in Homo sapiens.
Assay [2] deals with HIV-1ERS104pre (wild-type). The assay is described as follows: Anti-HIV activity in PHA-PBM, p24 Gag production, wild-type clinical isolate. As to conditions: Human immunodeficiency virus 1, PBMC, read-out: IC50 against HIV-1ERS104pre. Type of assay: cell-based.
Assay [3] concerns the target HIV-1 protease (Human immunodeficiency virus type 1 group M subtype B, UniProt P04585). As to the kind of experiment: HIV-1 protease enzyme inhibition. Type of assay: biochemical. As to conditions: for fold improvement of enzyme Ki over 17a: relative to 17a.

SMILES strings stand for the structures. A value given as a limit tells only on which side of the number the result lay.

As to `COc1ccc(S(=O)(=O)N(C[C@H]2CCC(=O)N2)C[C@@H](O)[C@H](Cc2ccccc2)NC(=O)O[C@@H]2C[C@@H]3CCO[C@@H]3C2)cc1` [Inhibitor 19b, (3aS,5R,6aR)-Hexahydro-2H–cyclopenta[b]furan-5-yl-(2S,3R)-3-hydroxy-4-(4-methoxy-N-(((R)-5-oxopyrrolidin-2-yl)methyl)phenylsulfonamido)-1-phenylbutan-2-ylcarbamate], the “fold improvement in antiviral activity relative to 17b” value in assay [1] (relative to epimeric (S)-pyrrolidinone derivative 17b) is listed as 10 fold. For the same compound, in assay [2], the IC50 (commonly the midpoint of a concentration-inhibition curve) worked out at 28 nM.

As to `CC(C)(C)NC(=O)[C@@H]1C[C@@H]2CCCC[C@@H]2CN1C[C@@H](O)[C@H](Cc1ccccc1)NC(=O)[C@H](CC(N)=O)NC(=O)c1ccc2ccccc2n1` [saquinavir, reference compound], the IC50 in assay [1] turned out to be 15 nM. The same measure, in the same setting: under `Nc1ccc(S(=O)(=O)N(C[C@@H]2COC(=O)N2)C[C@@H](O)[C@H](Cc2ccccc2)NC(=O)O[C@H]2CO[C@H]3OCC[C@H]32)cc1` [Inhibitor 30, (3R,3aS,6aR)-hexahydrofuro[2,3-b]furan-3-yl-(2S,3R)-4-(4-amino-N-(((R)-2-oxooxazolidin-4-yl)methyl)phenylsulfonamido)-3-hydroxy-1-phenylbutan-2-ylcarbamate] stands above 1000 nM.

Turning to `COc1ccc(S(=O)(=O)N(C[C@@H]2CCC(=O)N2)C[C@@H](O)[C@H](Cc2ccccc2)NC(=O)O[C@@H]2C[C@@H]3CCO[C@@H]3C2)cc1` [Inhibitor 17b, (3aS,5R,6aR)-Hexahydro-2H–cyclopenta[b]furan-5-yl-(2S,3R)-3-hydroxy-4-(4-methoxy-N-(((S)-5-oxopyrrolidin-2-yl)methyl)phenylsulfonamido)-1-phenylbutan-2-ylcarbamate], the “fold improvement of enzyme Ki over 17a” value in assay [3] is 3 fold.

Consider `COc1ccc(S(=O)(=O)N(C[C@H]2CCC(=O)N2)C[C@@H](O)[C@H](Cc2ccccc2)NC(=O)O[C@H]2CO[C@H]3OCC[C@H]32)cc1` [Inhibitor 19a, (3R,3aS,6aR)-Hexahydrofuro[2,3-b]furan-3-yl(2S,3R)-3-hydroxy-4-(4-methoxy-N-(((R)-5-oxopyrrolidin-2-yl)methyl)phenylsulfonamido)-1-phenylbutan-2ylcarbamate], for which, in assay [3], the “fold improvement of enzyme Ki over 17a” value was determined as 10 fold.

Consider `CC(C)CN(C[C@@H](O)[C@H](Cc1ccccc1)NC(=O)O[C@H]1CCOC1)S(=O)(=O)c1ccc(N)cc1` [amprenavir, reference compound], for which the figures for the IC50 in assay [1] and in assay [2] were 30 nM and 25 nM, respectively.

In the case of `COc1ccc(S(=O)(=O)N(C[C@@H]2CCC(=O)N2)C[C@@H](O)[C@H](Cc2ccccc2)NC(=O)O[C@H]2CO[C@H]3OCC[C@H]32)cc1` [Inhibitor 17a, (3R,3aS,6aR)-Hexahydrofuro[2,3-b]furan-3-yl(2S,3R)-3-hydroxy-4-(4-methoxy-N-(((S)-5-oxopyrrolidin-2-yl)methyl)phenylsulfonamido)-1-phenylbutan-2-yl-carbamate], in assay [3] (Ki (nM), enzyme inhibitory potency), the Ki (usually a dissociation constant, usually derived from enzyme kinetics or from competition with a known ligand) was determined as 1 nM.

Turning to `Nc1ccc(S(=O)(=O)N(C[C@@H]2CCC(=O)N2)C[C@@H](O)[C@H](Cc2ccccc2)NC(=O)O[C@H]2CO[C@H]3OCC[C@H]32)cc1` [Inhibitor 18a, (3R,3aS,6aR)-Hexahydrofuro[2,3-b]furan-3-yl(2S,3R)-4-(4-amino-N-(((S)-5-oxopyrrolidin-2-yl)methyl)phenylsulfonamido)-3-hydroxy-1-phenylbutan-2-ylcarbamate], the IC50 in assay [1] is above 1000 nM. Regarding `CC(C)(C)NC(=O)[C@@H]1CN(Cc2cccnc2)CCN1C[C@@H](O)C[C@@H](Cc1ccccc1)C(=O)N[C@H]1c2ccccc2C[C@H]1O` [indinavir, reference compound], the IC50 in assay [1] turned out to be 30 nM; in assay [2], 28 nM.
